Measurements taken from patent publication US6410551B1, “Tetrazole derivatives” (Byk Gulden Lomberg Chemische Fabrik GmbH, priority 1997, dated 2002).

Columns and labels:
[1] = test system: PDE 4; test: Inhibition of PDE 4 activity (method of Bauer and Schwabe, adapted to microtiter plates); type: biochemical; details: inhibitory concentration as -log IC50 (mol/l)
Experimental: 1. Inhibition of PDE 4 Activity
The activity test was carried out by the method of Bauer and Schwabe, which was adapted to microtiter plates (Naunyn-Schmiedeberg's Arch. Pharmacol. 1980, 311, 193-198). In this connection, the PDE reaction is carried out in the first step. In a second step, the resultant 5′-nucleotide is cleaved to give the uncharged nucleoside by a 5′-nucleotidase of the snake venom from Crotalus atrox. In the third step, the nucleoside is separated from the remaining charged substrate on ion exchange columns. The columns are eluted with 2 ml of 30 mM ammonium formate (pH 6.0) directly into minivials to which 2 ml of scintilation fluid is additionally added for counting.

Which “Inhibition of the PDE 4 activity, −log IC50” value [1] does the source give for CCOc1cc2c(cc1OC)C(c1ccc(-c3nnn(CC)n3)cc1)=N[C@H]1CCCC[C@@H]21 (racemic) [Compound 2, (+/−)-cis-9-Ethoxy-8-methoxy-6-[4-(2ethyl-2H-tetrazol-5-yl)phenyl]-1,2,3,4,4a,10b-hexahydrophenanthridine] here?
The value was 8.78.

And the melting point?
Its melting point is 167 to 170 °C.
